Data on five compounds can be found in ChEMBL document CHEMBL4339235, “Guitarrins A-E and Aluminumguitarrin A: 5-Azaindoles from the Northwestern Pacific Marine Sponge Guitarra fimbriata” (J Nat Prod, 2019).

Molecules are shown by their SMILES.

A word on the IC50: it is the point on the concentration scale where inhibition reaches its midpoint.

A short description of this experiment: Inhibition of Cobetia marina ALP using pNPP as substrate.

For the compound `O=C(O)c1cc2[nH]ccc2c(CO)n1`, the 50% inhibitory concentration (IC50) (read-out: IC50) is 2 µM.
On to `O=C(O)CCCc1nccc2[nH]ccc12`, for which the IC50 entry is recorded as “Not Active”.
Turning to `O=C(O)c1nc(CO)c2cc[nH]c2c1O`, the IC50 (read-out: IC50) is 100 µM.
Take `O=C(O)c1nccc2[nH]ccc12`: the 50% inhibitory concentration (IC50) result was “Not Active”.
Turning to `OCc1nccc2[nH]ccc12`, the IC50 result is given as “Not Active”.
